Source: patent US20070232563A1, “Method for Enhancing Biological Activity and/or Expanding Suitable Region for Biological Activity of Living Body Contacting with Aqueous Environment” (Kabushiki Kaisha Hayashibara Seibutsu Kagaku Kenky, priority 2004, published 2007)

Key:
Type in all cases: in vivo
[1] = tested on: gold fish (Japanese gold fish, Carassius auratus) with columnaris disease; assay: Treatment for a disease of gold fish (columnaris disease); details: bred one week, each ingredient 1 (w/v)%; for Treatment effect: columnaris disease; for Activity of gold fish: macroscopic observation
Experimental: One per group of gold fish (Japanese gold fish, Carassius auratus) with columnaris disease was bred in an aquarium filled with 2 L of aqueous solution containing 1 w/v % mineral and 1 w/v % α,α-trehalose or α-maltosyl α,α-trehalose at ambient temperature with normal feed for one week. Waters containing either of mineral, α,α-trehalose or α-maltosyl α,α-trehalose as references and water as a control were prepared to breed similarly as above. The fishes were macroscopically observed their activity and treatment effect.

[2] = tested on: colbicula (Corbicula leana); assay: Biological activity of corbicula (aqueduct extension score) in aqueous mineral solutions
Excerpt: Influence of various saccharides was judged by observing the degree of extending aqueduct of the shellfish; 3 points: its aqueduct is well extended; 2 points: its aqueduct is slightly extended; 1 point: its aqueduct is not extended but its shells are opened; 0 point: its shells are closed. The effect on biological activity was judged by the total point of 18 shellfishes.
Suitable region for biological activity was examined by using colbicula (Corbicula leana) as fishes and shellfishes living in fresh water in the case of enhancing their biological activity by using aqueous mineral solutions containing various saccharides. In detail, solar salt (85% by weight of sodium chloride and 15% by weight of magnesium) as minerals was dissolved in tap water kept in a container for two days to give final concentrations described in the following Table 4. Saccharide (any one of D-glucose, maltose, sucrose, maltitol, α,α-trehalose, α-maltosyl α,α-trehalose, maltotetraose and cyclic tetrasaccharide) was dissolved in the resulting salt solutions to give a final concentration of 1 w/v %, on a dry solid basis. The resulting each solution was placed in a plastic bat. Eighteen pre-selected active shellfishes in one group were placed in the bat. The bat was shaded with a black cloth and left at ambient temperature (18° C.) for 16 hours. As a control, an aqueous solar salt solution without saccharides was prepared. Biological activity of the shellfish was judged by measuring extend their aqueducts macroscopically in the same manner as in Experiment 1.
Effective concentration range of α,α-trehalose or α-maltosyl α,α-trehalose on enhancing biological activity and/or influencing on suitable region for biological activity of colbicula (Corbicula leana) was determined according to the method of Experiment 4 by examining biological activity of the shellfish in the aqueous mineral solution with a mineral concentration of 1.5 w/v %, where α,α-trehalose or α-maltosyl α,α-trehalose was effective in Experiment 4, containing α,α-trehalose or α-maltosyl α,α-trehalose at a concentration of 0.01, 0.1, 1, 2, 3 or 4 w/v %, on a dry solid basis. As a control, a solution containing 1.5 w/v % of mineral without such saccharides was prepared and treated in the same manner.

alfalfa = assay: Cultivation of sprout food (alfalfa) in aqueous mineral solution: stem extension, flavor and taste panel; details: aerial part (stem) height vs water control; each ingredient 1 (w/v)%; three days, 18° C.
Excerpt: Absorbent cotton was allowed to absorb aqueous solution containing on a dry solid basis 1 w/v % of mineral (sodium chloride) and 1 w/v % of α,α-trehalose or α-maltosyl α,α-trehalose and placed in a transparent container. One hundred per group commercialized alfalfa seeds were placed in the container. As references, waters containing either of mineral, α,α-trehalose or α-maltosyl α,α-trehalose were used. As a control, water was used. After covered with a transparent lid, the container was placed in a room under a borrowed light at 18° C. for three days to cultivate alfalfa. The grown alfalfa plants were measured to calculate average value of aerial part (stem) height. Relative extension rate was calculated in such a manner of comparing the average value of each sample with that of control. In addition, 20 panels were judged in view of flavor and taste in such a manner of comparing each sample with control cultivated in water.

[3] = Experiment 5, mineral 1.5 w/v %, saccharide 0.01 w/v %
[4] = Experiment 5, mineral 1.5 w/v %, saccharide 0.1 w/v %
[5] = Experiment 5, mineral 1.5 w/v %, saccharide 1 w/v %
[6] = Experiment 5, mineral 1.5 w/v %, saccharide 2 w/v %
[7] = Experiment 5, mineral 1.5 w/v %, saccharide 3 w/v %
[8] = Experiment 5, mineral 1.5 w/v %, saccharide 4 w/v %
[9] = mineral concentration 0, saccharide 1 w/v %, total of 18 shellfishes, 16 h
[10] = mineral concentration 0.5, saccharide 1 w/v %, total of 18 shellfishes, 16 h
[11] = mineral concentration 1.0, saccharide 1 w/v %, total of 18 shellfishes, 16 h
[12] = mineral concentration 1.5, saccharide 1 w/v %, total of 18 shellfishes, 16 h
[13] = mineral concentration 2.0, saccharide 1 w/v %, total of 18 shellfishes, 16 h
[14] = mineral concentration 2.5, saccharide 1 w/v %, total of 18 shellfishes, 16 h
[15] = mineral concentration 3.0, saccharide 1 w/v %, total of 18 shellfishes, 16 h

Row | Compound | Treatment effect [1] | Activity of gold fish [1] | Judgment score of biological activity [2, 3] | Judgment score of biological activity [2, 4] | Judgment score of biological activity [2, 5] | Judgment score of biological activity [2, 6] | Judgment score of biological activity [2, 7] | Judgment score of biological activity [2, 8] | Judgment score of biological activity [2, 9] | Judgment score of biological activity [2, 10] | Judgment score of biological activity [2, 11] | Judgment score of biological activity [2, 12] | Judgment score of biological activity [2, 13] | Judgment score of biological activity [2, 14] | Judgment score of biological activity [2, 15] | Relative extension (%) (alfalfa)
1 | OC[C@H]1O[C@H](O[C@H]2O[C@H](CO)[C@@H](O)[C@H](O)[C@H]2O)[C@H](O)[C@@H](O)[C@@H]1O [α,α-Trehalose, α,α-trehalose] | Bad | Good | 21 | 39 | 52 | 48 | 39 | 25 | 54 | 53 | 52 | 49 | 42 | 20 | 6 | 101
2 | OC[C@H]1O[C@H](O[C@H]2O[C@H](CO)[C@@H](O[C@H]3O[C@H](CO)[C@@H](O[C@H]4O[C@H](CO)[C@@H](O)[C@H](O)[C@H]4O)[C@H](O)[C@H]3O)[C@H](O)[C@H]2O)[C@H](O)[C@@H](O)[C@@H]1O [α-Maltosyl α,α-trehalose, α-maltosyl α,α-trehalose] | Bad | Good | 19 | 35 | 45 | 41 | 34 | 21 | 54 | 53 | 45 | 44 | 37 | 24 | 4 | 105
